Measurements reported in paper PMC8483441 (Journal of Medicinal Chemistry, 2021).
≈ marks a conversion by molar mass, not a printed value. Like-named read-outs stand apart in the source and are kept apart here. Square brackets hold non-standard residues; d marks the D form. Peptide text beside a SMILES is read from it. Orn = NCCC[C@H](N)C(=O)O

Key:
S. enterica = type: cell-based, Salmonella enterica; conditions: 24 h
Experimental: (§1) Human serum was purchased from Sigma (St Louis, USA).
(§2) Incubations were kept at 37 °C for 24 h. Results are the average of three independent studies.

E. coli [1] = experiment: Antimicrobial resistance, recurrent incubation; type: cell-based; conditions: 7 rounds of incubation with 1 μM peptide, below the MIC
Experimental: To test whether recurrent incubation of bacteria with peptides could induce resistance, E. coli (10^7 cfu/mL) were incubated with peptides (1 μM) or ciprofloxacin (1 μg/mL) for 1 h. After incubation, cells were centrifuged, washed, and grown overnight in Mueller-Hinton medium. The cycle of incubation and growth was repeated in a cyclic manner for 7 days, and each day, cultures were tested for MIC to detect resistance.

Escherichia coli = type: cell-based; conditions: 24 h
Experimental: as §2

Salmonella enterica = type: cell-based; conditions: 24 h
Experimental: as §2

Acinetobacter baumannii = type: cell-based; conditions: 24 h
Experimental: as §2

Shigella flexneri = conditions: 50 μL from MIC wells seeded into Petri plates, 24 h; lowest concentration without detectable growth
Experimental: The antibiotic activity was defined by the minimum peptide concentration where the microorganism is unable to grow. The assay was done in polypropylene 96-well plates (Greiner, Frickenhausen, Germany) to avoid peptide binding to plate wells. Peptides were dissolved in water containing 0.4% w/v bovine serum albumin (BSA) and 0.02% v/v glacial acetic acid to prevent self-aggregation, following the reference protocol by Wiegand et al.,[42] based on the classical microtiter broth dilution recommended by the National Committee of Laboratory Safety and Standards (NCLSS). Initial bacteria inoculum was adjusted to 5 × 10^5 CFU/mL in Mueller-Hinton (MH) medium. Incubations were kept at 37 °C for 24 h. Results are the average of three independent studies. […] To determine the MBC, 50 μL from all wells were seeded into Petri plates and incubated for 24 h. The MBC concentration was attributed to the lowest concentration without detectable bacterial growth for each peptide.

A. baumannii = type: cell-based, Acinetobacter baumannii; conditions: 24 h
Experimental: as §1, §2

Pseudomonas sp. [2] = experiment: Minimum bactericidal concentration (MBC); type: cell-based; conditions: 50 μL from MIC wells seeded into Petri plates, 24 h; lowest concentration without detectable growth
Experimental: as §2

S. flexneri = conditions: 24 h
Excerpt: Purified horse red blood cells were acquired from Thermo Fisher Scientific (Hampshire, England). Human serum was purchased from Sigma (St Louis, USA). E. coli was obtained from the Coli Genetic Stock Center (BW25113). S. flexneri (ATCC 29903), A. baumannii (ATCC 15308), Pseudomonas sp. (ATCC 15915), and S. enterica (ATCC 14028) were obtained from the CECT (Valencia, Spain). Clinical strains were supplied by the Vall d’Hebron Hospital (Barcelona, Spain). MRC5 fibroblasts were obtained from the Cytometry and Cell Culture Facility (SCAC, UAB) and originally purchased from ATCC.
The antibiotic activity was defined by the minimum peptide concentration where the microorganism is unable to grow. The assay was done in polypropylene 96-well plates (Greiner, Frickenhausen, Germany) to avoid peptide binding to plate wells. Peptides were dissolved in water containing 0.4% w/v bovine serum albumin (BSA) and 0.02% v/v glacial acetic acid to prevent self-aggregation, following the reference protocol by Wiegand et al.,[42] based on the classical microtiter broth dilution recommended by the […]. Initial bacteria inoculum was adjusted to 5 × 10^5 CFU/mL in Mueller-Hinton (MH) medium. Incubations were kept at 37 °C for 24 h. Results are the average of three independent studies. MIC assays in the presence of serum were performed by incubating the peptide with human serum at a 1:1 ratio. Then, 10^6 cfu/mL of Pseudomonas sp. were incubated with serial dilutions of the peptides for 4 h. To determine the MBC, 50 μL from all wells were seeded into Petri plates and incubated for 24 h. The MBC concentration was attributed to the lowest concentration without detectable bacterial growth for each peptide.

Pseudomonas sp. [3] = experiment: MIC, broth microdilution; type: cell-based; conditions: Pseudomonas sp. ATCC 15915; Mueller-Hinton medium, 5 × 10^5 CFU/mL, 37 °C, 24 h; average of three independent studies
Experimental: as §1, §2

Pseudomonas sp. [4] = experiment: MIC of peptides incubated with human serum; type: cell-based; conditions: peptide incubated with human serum 1:1; 10^6 cfu/mL Pseudomonas sp., 4 h
Experimental: as §2

E. coli [5] = type: cell-based, Escherichia coli; conditions: 24 h
Experimental: as §1, §2

horse red blood cells = experiment: Hemolytic activity; type: cell-based
Experimental: The peptide toxicity was determined detecting the disruption of horse red blood cells, following a previous assay report.[35] 10-fold diluted cells in PBS were centrifuged three times at 800g to eliminate the hemoglobin from disrupted cells. After the last resuspension, erythrocytes were incubated with the peptides for 4 h at 37 °C. The detection was done measuring the supernatant absorbance in a VICTOR3 multilabel plate reader (Perkin Elmer, Waltham, Massachusetts) at 540 nm in a microplate reader. Percentage of hemolysis was calculated through a pattern done with dilutions of total cell lysis done with a 1% Triton X-100 buffer. Results are the average of three independent studies.

MRC-5 cells = experiment: Cytotoxicity in mammalian cells (MTT assay); type: cell-based
Experimental: (§3) MRC-5 cells were grown in Eagle’s minimum essential medium (MEMα), supplemented with 10% fetal bovine serum (FBS). 96-well plates were seeded with 3 × 10^4 cells/well and cultured overnight in order to get cells adhered into the plate and then incubated with two-fold peptide serial dilutions. After 4 h of incubation, the medium containing the peptides was replaced by MEMα supplemented with FBS and 3-(4,5-dimethylthiazol-2-yl)-2,5-diphenyltetrazolium bromide (MTT) at 0.4 mg/mL and incubated for 150 min. Detection of formazan crystals in the living cells was done by cell disruption by addition of 200 μL of dimethyl sulfoxide (DMSO) followed by absorbance measuring at 600 nm in a Tecan Infinite F Nano+ microplate reader (Tecan, Germany). Results are the average of three independent studies.

[6] = Cytotoxicity in mammalian cells (MTT assay); type: cell-based; conditions: MRC-5 cytotoxicity (IC50)
Experimental: as §3

[7] = 50 μL from MIC wells seeded into Petri plates, lowest concentration without detectable growth

CC[C@H](C)[C@H](NC(=O)[C@H](CCCCN)NC(=O)[C@H](CCC(=O)O)NC(=O)[C@H](CCCCN)NC(=O)[C@H](CO)NC(=O)[C@H](CCCCN)NC(=O)[C@H](CCCNC(=N)N)NC(=O)[C@H](Cc1ccccc1)NC(=O)[C@H](Cc1ccccc1)NC(=O)[C@H](CC(=O)O)NC(=O)CNC(=O)[C@H](CC(C)C)NC(=O)[C@@H](N)CC(C)C)C(=O)NCC(=O)N[C@@H](CCCCN)C(=O)N[C@@H](CCC(=O)O)C(=O)N[C@@H](Cc1ccccc1)C(=O)N[C@@H](CCCCN)C(=O)N[C@@H](CCCNC(=N)N)C(=O)N[C@H](C(=O)N[C@H](C(=O)N[C@@H](CCC(N)=O)C(=O)N[C@@H](CCCNC(=N)N)C(=O)N[C@H](C(=O)N[C@@H](CCCCN)C(=O)N[C@@H](CC(=O)O)C(=O)N[C@@H](Cc1ccccc1)C(=O)N[C@@H](CC(C)C)C(=O)N[C@@H](CCCNC(=N)N)C(=O)N[C@@H](CC(N)=O)C(=O)N[C@@H](CC(C)C)C(=O)N[C@H](C(=O)N1CCC[C@H]1C(=O)N[C@@H](CCCNC(=N)N)C(=O)N[C@H](C(=O)N[C@@H](CCC(=O)O)C(=O)N[C@@H](CO)C(=O)O)[C@@H](C)O)C(C)C)[C@@H](C)CC)C(C)C)[C@@H](C)CC [LL-37, reference compound]
MIC S. enterica (S. enterica; S. enterica ATCC 14028, Mueller-Hinton medium, 5 × 10^5 CFU/mL, 37 °C, average of three independent studies): 12.5 µM (≈ 56.2 µg/mL)
increase in MIC (induced resistance) in E. coli (E. coli [1]): did not detect a significant increase in MIC
MBC Escherichia coli (Escherichia coli; [7]): 1.56 µM (≈ 7.01 µg/mL)
MBC Salmonella enterica (Salmonella enterica; [7]): 12.5 µM (≈ 56.2 µg/mL)
MBC Acinetobacter baumannii (Acinetobacter baumannii; [7]): 6.25 µM (≈ 28.1 µg/mL)
MBC Shigella flexneri (Shigella flexneri): 12.5 µM (≈ 56.2 µg/mL)
MIC A. baumannii (A. baumannii; A. baumannii ATCC 15308, Mueller-Hinton medium, 5 × 10^5 CFU/mL, 37 °C, average of three independent studies): 6.25 µM (≈ 28.1 µg/mL)
MBC Pseudomonas sp. (Pseudomonas sp. [2]): 1.56 µM (≈ 7.01 µg/mL)
MIC S. flexneri (S. flexneri; S. flexneri ATCC 29903, Mueller-Hinton medium, 5 × 10^5 CFU/mL, 37 °C, average of three independent studies): 12.5 µM (≈ 56.2 µg/mL)
MIC Pseudomonas sp. (Pseudomonas sp. [3]): 1.56 µM (≈ 7.01 µg/mL)

CC[C@H](C)[C@H](NC(=O)[C@H](C)NC(=O)[C@H](CCCN)NC(=O)[C@H](CCSC)NC(=O)[C@H](C)NC(=O)[C@@H](NC(=O)[C@@H](NC(=O)[C@H](CCCN)NC(=O)[C@@H]1CCCN1C(=O)[C@H](CO)NC(=O)[C@@H](NC(=O)[C@H](Cc1c[nH]cn1)NC(=O)[C@H](CCC(N)=O)NC(=O)[C@@H](NC(=O)[C@H](C)NC(=O)[C@H](Cc1ccccc1)NC(=O)[C@H](Cc1c[nH]c2ccccc12)NC(=O)[C@H](CCC(N)=O)NC(=O)[C@H](C)NC(=O)[C@H](CCCN)NC(=O)[C@@H](NC(=O)[C@H](Cc1ccccc1)NC(=O)[C@@H]1CCCN1C(=O)[C@@H](N)CCCN)[C@@H](C)O)[C@@H](C)CC)[C@@H](C)CC)[C@@H](C)O)[C@@H](C)CC)C(=O)N[C@@H](CC(N)=O)C(=O)N[C@@H](CC(N)=O)C(=O)N[C@@H](Cc1ccc(O)cc1)C(=O)N[C@@H](CCCN)C(=O)N[C@@H](Cc1c[nH]c2ccccc12)C(=O)N[C@@H](CCCN)C(N)=O [peptide 2] (H-[Orn]PFT[Orn]AQWFAIQHISP[Orn]TIAM[Orn]AINNY[Orn]W[Orn]-NH2)
MIC S. enterica (S. enterica): 25 µM (≈ 87.6 µg/mL)
MIC in Pseudomonas sp., peptides incubated with human serum (Pseudomonas sp. [4]): 50 µM
MBC Escherichia coli (Escherichia coli): 6.25 µM (≈ 21.9 µg/mL)
MBC Salmonella enterica (Salmonella enterica): 25 µM (≈ 87.6 µg/mL)
MBC Acinetobacter baumannii (Acinetobacter baumannii): 6.25 µM (≈ 21.9 µg/mL)
MBC Shigella flexneri (Shigella flexneri): 12.5 µM (≈ 43.8 µg/mL)
MIC A. baumannii (A. baumannii): 6.25 µM (≈ 21.9 µg/mL)
MIC E. coli (E. coli [5]): 6.25 µM (≈ 21.9 µg/mL)
hemolysis % (250 μM peptide) (horse red blood cells): 10%
hemolysis % (250 μM peptide) (horse red blood cells; red cells of horse, 4 h, 250): 10 ± 2%
MBC Pseudomonas sp. (Pseudomonas sp. [2]): 6.25 µM (≈ 21.9 µg/mL)
MIC S. flexneri (S. flexneri): 12.5 µM (≈ 43.8 µg/mL)
MIC Pseudomonas sp. (Pseudomonas sp. [3]): 6.25 µM (≈ 21.9 µg/mL)
IC50 (MRC-5 cells; 4 h): 113 ± 8 µM
IC50 [6]: ≤ 180 µM

CC[C@H](C)[C@H](NC(=O)[C@H](C)NC(=O)[C@H](CCCN)NC(=O)[C@H](CCSC)NC(=O)[C@H](C)NC(=O)[C@@H](NC(=O)[C@@H](NC(=O)[C@H](CCCN)NC(=O)[C@@H]1CCCN1C(=O)[C@H](CO)NC(=O)[C@@H](NC(=O)[C@H](Cc1c[nH]cn1)NC(=O)[C@H](CCC(N)=O)NC(=O)[C@@H](NC(=O)[C@H](C)NC(=O)[C@H](Cc1ccccc1)NC(=O)[C@H](Cc1c[nH]c2ccccc12)NC(=O)[C@H](CCC(N)=O)NC(=O)[C@H](C)NC(=O)[C@H](CCCN)NC(=O)[C@@H](NC(=O)[C@@H](N)Cc1ccccc1)[C@@H](C)O)[C@@H](C)CC)[C@@H](C)CC)[C@@H](C)O)[C@@H](C)CC)C(=O)N[C@@H](CC(N)=O)C(=O)N[C@@H](CC(N)=O)C(=O)N[C@@H](Cc1ccc(O)cc1)C(=O)N[C@@H](CCCN)C(=O)N[C@@H](Cc1c[nH]c2ccccc12)C(=O)N[C@@H](CCCN)C(N)=O [peptide 5] (H-FT[Orn]AQWFAIQHISP[Orn]TIAM[Orn]AINNY[Orn]W[Orn]-NH2)
MIC S. enterica (S. enterica): >100 µM
MBC Escherichia coli (Escherichia coli): 25 µM (≈ 82.3 µg/mL)
MBC Salmonella enterica (Salmonella enterica): > 100 µM
MBC Acinetobacter baumannii (Acinetobacter baumannii): > 100 µM
MBC Shigella flexneri (Shigella flexneri): 50 µM (≈ 165 µg/mL)
MIC A. baumannii (A. baumannii): >100 µM
MIC E. coli (E. coli [5]): 25 µM (≈ 82.3 µg/mL)
hemolysis % (250 μM peptide) (horse red blood cells; red cells of horse, 4 h, 250): 11 ± 4%
MBC Pseudomonas sp. (Pseudomonas sp. [2]): 25 µM (≈ 82.3 µg/mL)
MIC S. flexneri (S. flexneri): 50 µM (≈ 165 µg/mL)
MIC Pseudomonas sp. (Pseudomonas sp. [3]): 25 µM (≈ 82.3 µg/mL)
MRC-5 cytotoxicity (IC50) (MRC-5 cells): No toxicity was detected
IC50 [6]: > 300 µM
